Data taken from publication PMC11614538, “The proline-rich antimicrobial peptide B7-005: low bacterial resistance, safe for human cells and effective in zebrafish embryo bacteraemia model” (Open Biology, 2024).
Converted amounts (≈) assume the structure as drawn. Residues, ends and D or L forms follow the SMILES beside them.

Tests used:
E. coli ATCC 25922 = test: microbe, parasite or virus in culture; settings: for MIC after 14th passage: 14 daily passages at one-half MIC, 18 h; for MIC: Escherichia coli, ATCC25922
Method: Escherichia coli ATCC 25922 was purchased from the American Type Culture Collection (ATCC) (Manassas, Virginia, USA) and stored at −80°C as glycerol stock until use. Bacterial cultures were grown overnight in sterile Müller–Hinton broth (MHB) (Difco Inc.) at 37°C under agitation (140 r.p.m.). The next day, the cultures were diluted 1 : 30 in new MHB and incubated as described above for about 2 h (mean logarithmic phase) until they reached an optical density at 600 nm of about 0.3 and then diluted in fresh MHB to the desired concentrations.
The effects of human serum on the antimicrobial activity of B7-005 were assessed by performing a minimum inhibitory concentration (MIC) assay with some modifications. Non-heat-inactivated human serum (Merk Life Science S.r.l., USA) was diluted to 50%, 40%, 30%, 25%, and 20% (v/v) in MHB and the solutions were aliquoted into the wells of a round-bottomed 96-well microtitre plate (Sarstedt, Milan, Italy). Samples with no serum were used for comparison. B7-005 was diluted in MHB added with the proper amount of serum to a concentration of 128 μM, added to the first column of the plate and serially diluted twofold in MHB, added with the proper amount of serum, in the subsequent wells in a final volume of 50 μl. Then 50 μl of a mid-log suspension of 5 × 10^5 CFU ml^−1 E. coli ATCC 25922 cells prepared in MHB added with the proper amount of serum was added to each well of the plate, halving the final concentration of bacteria and peptide. The plate was incubated at 37°C for 18 h. The MIC value was calculated as the lowest concentration of the compound resulting in complete inhibition of visible bacterial growth. MIC values were determined by performing at least three independent experiments (n ≥ 3).
The resistance selection assay was performed by modifying a previously described method. First, the MIC values of each antimicrobial compound (PrAMP or antibiotic) against E. coli ATCC 25922 were determined and recorded as described above. Serial sub-culturing was started by harvesting bacterial cells growing at one-half MIC and inoculating them into fresh MHB. […] This inoculum was incubated o/n and subjected to another MIC test. After 18 h of incubation, the cells growing at one-half MIC were harvested and used for another similar MIC assay. The process was repeated for 7 or 14 daily passages.

[1] = system: zebrafish larvae infection model; settings: simultaneous injection of pathogens and peptide versus post-infection administration; ref [40]; cited from earlier work
Description: In the current work, the infection of zebrafish larvae with E. coli and their treatment with B7-005 were strictly controlled performing them by microinjection in the Cuvier duct. […] To better ...

## CC[C@H](C)[C@H](NC(=O)[C@H](CCCNC(=N)N)NC(=O)[C@@H](N)CCCNC(=N)N)C(=O)N[C@@H](CCCNC(=N)N)C(=O)N1CCC[C@H]1C(=O)N[C@@H](CCCNC(=N)N)C(=O)N1CCC[C@H]1C(=O)N1CCC[C@H]1C(=O)N[C@@H](CCCNC(=N)N)C(=O)N[C@@H](CC(C)C)C(=O)N1CCC[C@H]1C(=O)N[C@@H](CCCNC(=N)N)C(=O)N1CCC[C@H]1C(=O)N[C@@H](CCCNC(=N)N)C(=O)N1CCC[C@H]1C(=O)N[C@@H](CCCNC(=N)N)C(=O)O [Bac7(1-16)] (H-RRIRPRPPRLPRPRPR-OH)
E. coli ATCC 25922; MHB
  MIC after 14th passage: 128 µM (≈ 266 µg/mL)

## CC[C@H](C)[C@H](NC(=O)[C@H](CCCNC(=N)N)NC(=O)[C@@H](N)CCCNC(=N)N)C(=O)N[C@@H](CCCNC(=N)N)C(=O)N1CCC[C@H]1C(=O)N[C@@H](CCCNC(=N)N)C(=O)N1CCC[C@H]1C(=O)N1CCC[C@H]1C(=O)N[C@@H](CCCNC(=N)N)C(=O)N[C@@H](CC(C)C)C(=O)N1CCC[C@H]1C(=O)N[C@@H](CCCNC(=N)N)C(=O)N1CCC[C@H]1C(=O)N[C@@H](CCCNC(=N)N)C(=O)N1CCC[C@H]1C(=O)N[C@@H](CCCNC(=N)N)C(=O)N1CCC[C@H]1C(=O)N[C@@H](CC(C)C)C(=O)N1CCC[C@H]1C(=O)N[C@@H](Cc1ccccc1)C(=O)N1CCC[C@H]1C(=O)N[C@@H](CCCNC(=N)N)C(=O)N1CCC[C@H]1C(=O)NCC(=O)N1CCC[C@H]1C(=O)N[C@@H](CCCNC(=N)N)C(=O)N1CCC[C@H]1C(=O)N[C@H](C(=O)N1CCC[C@H]1C(=O)N[C@@H](CCCNC(=N)N)C(=O)N1CCC[C@H]1C(=O)N[C@@H](CC(C)C)C(=O)N1CCC[C@H]1C(=O)N[C@@H](Cc1ccccc1)C(=O)N1CCC[C@H]1C(=O)O)[C@@H](C)CC [Bac7(1-35)] (H-RRIRPRPPRLPRPRPRPLPFPRPGPRPIPRPLPFP-OH; N-terminus and C-terminus assumed)
E. coli ATCC 25922; MHB
  MIC after 14th passage: 128 µM (≈ 539 µg/mL)
E. coli ATCC 25922; serial passages at one-half MIC, MHB
  passage (cycle) after which MIC started to increase: 5

## O=C(N[C@H](CO)[C@H](O)c1ccc([N+](=O)[O-])cc1)C(Cl)Cl [chloramphenicol]
E. coli ATCC 25922
  MIC: 1020 µM (≈ 331 µg/mL)
E. coli ATCC 25922; after 8 passages at one-half MIC
  fold increase in MIC: 64 fold

## CO[C@H]1/C=C/O[C@@]2(C)Oc3c(C)c(O)c4c(O)c(c(/C=N/N5CCN(C)CC5)c(O)c4c3C2=O)NC(=O)/C(C)=C\C=C\[C@H](C)[C@H](O)[C@@H](C)[C@@H](O)[C@@H](C)[C@H](OC(C)=O)[C@@H]1C [rifampicin]
E. coli ATCC 25922
  MIC: 1020 µM (≈ 843 µg/mL)
E. coli ATCC 25922; after 4 passages at one-half MIC
  fold increase in MIC: 64 fold

## Bac5: another PrAMP previously used in a zebrafish larvae infection model (RFRPPIRRPPIRPPFYPPFRPPIRPPIFPPIRPPFRPPLGPFP; Bactenecin 5; UniProt P19660 131-173, looked up)
[1]
  efficacy in zebrafish larvae infection model: only effective when the pathogens and peptide were simultaneously injected

## colistin
E. coli ATCC 25922; throughout the complete serial passaging process
  MIC during serial passaging: remained substantially unchanged
